Reference: patent US12466779B2, “Method for obtaining oleacein and oleomissional type secoiridoids and for producing respective pharmaceutical preparations” (OMPHAX SA, priority 2019, dated 2025)

Columns and labels:
HeLa cancer cells = experiment: cytotoxic activity on HeLa cancer cells; assay type: cell-based; conditions: read-out: concentration leading to death of 50% of cells
MCF-7 cancer cells = experiment: cytotoxic activity on MCF-7 cancer cells; assay type: cell-based; conditions: read-out: concentration leading to death of 50% of cells
water solubility = assay type: physicochemical; conditions: in comparison with the aldehydic forms (1)
[1] = storage stability of solutions and syrups; assay type: physicochemical; conditions: at room temperature; oleacein (1 g) in PEG200 or PEG 400 (5 ml)
Protocol: Dried olive leaves of Kalamata variety (10 kg) with 1% moisture are cut in the presence of water (100 L) at 25° C. and left in contact for 30 min. The mixture is filtered and the aqueous phase is obtained. The aqueous solution is extracted with dichloromethane (80 L) and the dichloromethane layer is obtained and evaporated under vacuum at 30° C. The residue (100 g) is made up of oleacein with a purity of 95%. The oleacein is mixed with water (10 L) under vigorous stirring for 30 min and transformed into a pure oleaceinediol solution. Alternatively, oleacein (1 g) is mixed with PEG200 or PEG 400 (5 ml) and converted into the stable polyethylene glycol hemiacetal. This solution is stable at room temperature for 12 months. This solution can be diluted to 100 ml with a saturated sugar solution affording a syrup containing 1% oleaceinediol, stable for 15-30 days with anti-inflammatory use.
Fresh olive leaves of Koroneiki variety (100 g) are left in contact with dichloromethane (500 g) at 25° C. for 30 min. The mixture is filtered and the organic phase is evaporated under vacuum. The residue is dissolved in deionized and distilled water at pH=6 (100 ml) under stirring for 24 hours, filtered and a solution of pure oleomissional is obtained. The solution is evaporated or lyophilized and oleomissional (160 mg) is obtained with a purity of >95%. […]

Row | water solubility with respect to substances (1), (2) (water solubility) | time stable [1] [months] | Substance | IC50 (HeLa cancer cells) [µM] | IC50 (MCF-7 cancer cells) [µM]
1 | greatly increased water solubility |  | 5S-(E)-oleaceinediol | 5 | 5
2 | greatly increased water solubility |  | 5S-(E)-oleomissionadiol | 50 | 50
3 |  | 12 | polyethylene glycol hemiacetal of oleacein |  | 
